Source: US20020026052A1, “3-cyanoquinolines, 3-cyano-1,6-naphthyridines, and 3-cyano-1,7-naphthyridines as protein kinase inhibitors” (American Home Products Corporation, priority 2000, published 2002)
Several values for one entry are separate records, joined by “and”; a condition that tells them apart may be missing. Equal values may be shown once.

How the values were obtained:
[1] = test system: Human adenocarcinoma cell line LoVo; experiment: Cell Based Screen for Inhibitors of Raf Kinase, LoVo; settings: four days incubation, SRB
Description: (§1) Cell Based Screen for Inhibitors of Raf Kinase.
(§2) Cell Lines: Human adenocarcinoma cell line LoVo which is known to be growth inhibited by low nM concentrations of a reference standard inhibitor of Ras and human adenocarcinoma cell line CaCo-2, which is known to be growth resistant to the same reference compound. Cell Media: RPMI 1640 with 10% Fetal Bovine Serum supplemented with L-glutamine and Pennicilin/Streptomycin. Compounds: Supplied usually as a 10 mM stock in 100% DMSO. Normal Saline: 150 mM NaCl Trichloroacetic Acid (TCA): 50% (w/v) in water Sulforhodamine B (SRB): 0.4% (w/v) in 1% Acetic Acid Tris Base: 10 mM in water
(§3) Cells are plated at 2000 cells per well for cell line LoVo and 1500 cells for cell line CaCo-2 in 96 well plates. Cells are plated in media (200 μl) and allowed to adhere overnight at 37 ° C. At 24 hours post plating, compounds are added directly at a volume of 0.5 μl. For the qualitative screen (compounds screened at 25 μM) compound is added directly to cells. For the quantitative screen, compound is first diluted in DMSO to generate concentrations of compound or reference standard of: 1, 5, 10 and 25 μM. It is advisable to make the dilutions in an identical 96 well plate so that compounds may be added using a multichannel micropipettor set at 0.5 μl. The cells are then incubated for four days after which the media is removed using a 12 well manifold by first tipping the plate forward at a 45 degree angle and then inserting the manifold in an upright orientation to prevent the ti
(§4) of the manifold from disturbing cells at the bottom of the plate. 200 μl of normal saline is then added to each well using an 8 well multichannel pipettor, followed by the careful addition of 50 μl of 50% TCA. The plates are then incubated for 2 hours at 4 ° C, after which the supernatant is removed using the same technique as above and the plated washed twice with 200 ul water. The plates are then air dried and 50 μl of SRB stock solution is carefully added so that the entire bottom of each well is covered. This again may be used using an 8 well multichannel pipettor. The SRB is incubated with fixed cells for 15 minutes at room temperature after which the SRB is removed with the manifold as described above and the plates washed twice with 350 μl of 1% acetic acid per well each time.The plates are then air dried after which the bound SRB is released from protein by the addition of 200 µl of Tris base. Resolubilizing the SRB is aided by placing the plates on a rotator for 15-30 minutes. The absorbance of each well is determined at 550 or 562 nm using a microtiter plate reader.
(§5) Each compound or dilution thereof is performed in triplicate. Outliers are identified by visual inspection of the data. Each plate should have a “0” control (vehicle only). […] Quantitative Assay: A standard curve is constructed by plotting the concentration of compound against the average absorbance calculated at that concentration. A curve is plotted and the concentration at which the curve passes through the 50% the absorbance mark seen in the “0” control well is the IC50 calculated for that compound. Multiple entries for a given compound indicate that it was tested multiple times.

Raf1 (c-Raf) = target: T1, Raf1 (c-Raf) (Homo sapiens, UniProt P04049); experiment: Raf1 Kinase Cascade Assay; type: biochemical
T1 construct: Sf9 insect cell lysate containing full length 6 his-tagged recombinant human c—Raf; 6His; host or cells: Sf9 insect cells (c-Raf, used as lysate); E. coli (GST-MEK1, GST-MAPK)
Description: Raf1 Kinase Cascade Assay Procedure
(Specific Activity: ˜200 U/ml). Human Non-active Mek-1—GST and human GST-MAP kinase (recombinant proteins produced in E. coli).
Stock Solutions Raf Assay:
Assay Dilution Buffer (ADB): 2 OmM MOPS, pH 7.2, 25 mM B-glycerol phosphate, mM EGTA, 1 mM sodium orthovanadate, 1 mM dithiothreitol. Magnesium/ATP Cocktail: 500 AM cold ATP and 75 mM magnesium chloride in ADB.
Active Kinase: Human Active c—Raf: Use at 0.4 U per assay point. Non-active GST-MEK1: Use at 0.1, ug per assay point. Non-active GST-p42 MAP Kinase: Use at 1.0 tg per assay point.
TBST—Tris (50 mM, pH 7.5)-1H-, NaCl (150 mM), Tween-20 (0.05%) Superblock (Pierce) Anti—GST Ab (Pharmacia) Anti-Phospho MAPK (Sigma) Anti-Mouse Ab/Europium conjugate (Wallac)
Assay Procedure: First Stage: c—Raf Dependent Activation of GST-MEK and GST-MAPK Add […] of ADB per assay (i.e. per well of a 96 well plate) Add 10 ml of 0.5 mM cold ATP and 75 mM magnesium chloride in ADB. Add 2 ml of c—Raf (0.4 U/assay), in conjunction with 1.6 ml non-active MEKI (0.4 mg/assay). Add 4 ml of non-active GST-p42 MAP Kinase (1.0 mg/assay). Incubate for 60 minutes at 30° C. in a shaking incubator. Transfer this mixture to an anti—GST Ab coated 96 well plate (Nunc Immunosorb plates coated o/n with a—GST, then blocked with Pierce Superblock). Incubate for 60 minutes at 30° C. in a shaking incubator Wash 3×with TBST, add Anti-Phospho MAPK (Sigma) (1:3000)-1H-Incubate for 60 minutes at 30° C. in a shaking incubator Wash 3×with TBST, add Anti-Mouse Ab/Europium conjugate (Wallac) (1:500)-1H-Incubate for 60 minutes at 30° C. in a shaking incubator Wash 3×with TBST, Read plates in Wallac Victor model Plate Reader. Collect data analyze in Excel for single point and IC50 determinations.
IC50 determinations - done on compounds from single point assays with >80% inhibition. Typically Raf-1 assay is run at compound concentrations from 10 μM to 30 nM in half log dilutions. (% inhibition is determined for each compound concentration).

[2] = test system: human adenocarcinoma cell line CaCo-2; experiment: Cell Based Screen for Inhibitors of Raf Kinase, CaCo-2; settings: four days incubation, SRB
Description: as §1, §2, §3, §4, §5

Row | Compound | IC50 [1] | IC50 (Raf1 (c-Raf)) | IC50 [2] | IC50 ([1]; Homo sapiens, LoVo, 96 h) | melting point | IC50 ([2]; Homo sapiens, Caco-2, 96 h)
1 | 4-({3-Chloro-4-[(1-methyl-1H-imidazol-2-yl) sulfanyl]phenyl }amino)-7-[5-(1-pyridinyl]-3-quinolinecarbonitrile [Example 180] | 5.6 nM | 3.7 nM | 930 nM | – | – | –
2 | 4-{3-Chloro-4-[(1-methyl-1H-imidazol-2-yl) sulfanyl]anilino }-7-{5-[(4-ethyl-1-piperazinyl) methyl]-2-furyl }-3-quinolinecarbonitrile [Example 156] | 5.6 nM | 9 nM and 12 nM | 1000 nM | – | – | –
3 | Cn1ccnc1Sc1ccc(Nc2c(C#N)cnc3cc(-c4csc(CN5CCOCC5)c4)ccc23)cc1Cl [Example 33, 4-{3-chloro-4-[(1-methyl-1H-imidazol-2-yl)sulfanyl]anilino}-7-[5-(4-morpholinylmethyl)-3-thienyl]-3-quinolinecarbonitrile] | – | 6 nM | – | 6 nM | 110 to 113 °C | –
4 | Cn1ccnc1Sc1ccc(Nc2c(C#N)cnc3cc(-c4ccc(CN5CCNCC5)cc4)ccc23)cc1Cl [Example 97, 4-({3-chloro-4-[(1-methylimidazol-2-yl)sulfanyl]phenyl}amino)-7-[4-(1-piperazinylmethyl)phenyl]-3-quinolinecarbonitrile] | – | 16 nM | – | 33 nM | 140 to 142 °C | > 1000 nM
5 | Cn1ccnc1Sc1ccc(Nc2c(C#N)cnc3cc(-c4ccc(CN5CCCCC5)cc4)ccc23)cc1Cl [Example 136, 4-{3-Chloro-4-[(1-methyl-IH-imidazol-2-yl)sulfanyl]anilino}-7-[4-(1-piperidinylmethyl)phenyl]-3-quinolinecarbonitrile] | – | 2.5 nM and 1.8 nM | – | 11 nM | 158 to 160 °C | > 1000 nM

The remaining lines, values ahead:

Row | IC50 [1] | IC50 (Raf1 (c-Raf)) | IC50 [2] | IC50 ([1]; Homo sapiens, LoVo, 96 h) | melting point | IC50 ([2]; Homo sapiens, Caco-2, 96 h) | Compound
6 | 6.2 nM | 5.6 nM | 810 nM | – | – | – | Cn1ccnc1Sc1ccc(Nc2c(C#N)cnc3cc(-c4ccc(CN5CCOCC5)cc4)ccc23)cc1Cl [Example 138, 4-({3-Chloro-4-[(1-methyl-lH-imidazol-2-yl)sulfanyl]phenyl}amino)-7-{4-[(4-morpholinyl)methyl]phenyl}-3-quinolinecarbonitrile]
7 | 9 nM | – | – | – | 225 to 227 °C | – | Cn1ccnc1Sc1ccc(Nc2c(C#N)cnc3cc(-c4ccc(CN5CCOCC5)cn4)ccc23)cc1Cl [Example 187, 4-{3-Chloro-4-[(1-methyl-1H-inidazol-2-yl)sulfanyl]anilino}-7-[5-(4-morpholinylmethyl)-2-pyridinyl]-3-quinolinecarbonitrile]
8 | – | 1 nM | – | 30 nM | > 250 °C | > 10000 nM | Cn1ccnc1Sc1ccc(Nc2c(C#N)cnc3cc(-c4cnc(N5CCOCC5)nc4)ccc23)cc1Cl [Example 191, 4-{3-Chloro-4-[(1-methyl-1H-imidazol-2-yl)sulfanyl]anilino}-7-[2-(4-morpholinyl)-5-pyrimidinyl]-3-quinolinecarbonitrile]
9 | 5.3 nM | 6 nM | > 1000 nM | – | – | – | Cn1ccnc1Sc1ccc(Nc2c(C#N)cnc3cc(-c4ccc(N5CCCCC5)nc4)ccc23)cc1Cl [Example 211, 4-({3-Chloro-4-[(1-methyl-iH-imidazol-2-yl)sulfanyl]phenyl}amino)-7-[6-(1-piperidinyl)-3-pyridinyl]-3-quinolinecarbonitrile]
